{"source": "ChEMBL document CHEMBL5726107", "about": "“Histone demethylase inhibitors” (2017)", "key": {"[1]": {"target": "Lysine-specific demethylase 5A (Homo sapiens, UniProt P29375)", "sequence (P29375 whole entry)": "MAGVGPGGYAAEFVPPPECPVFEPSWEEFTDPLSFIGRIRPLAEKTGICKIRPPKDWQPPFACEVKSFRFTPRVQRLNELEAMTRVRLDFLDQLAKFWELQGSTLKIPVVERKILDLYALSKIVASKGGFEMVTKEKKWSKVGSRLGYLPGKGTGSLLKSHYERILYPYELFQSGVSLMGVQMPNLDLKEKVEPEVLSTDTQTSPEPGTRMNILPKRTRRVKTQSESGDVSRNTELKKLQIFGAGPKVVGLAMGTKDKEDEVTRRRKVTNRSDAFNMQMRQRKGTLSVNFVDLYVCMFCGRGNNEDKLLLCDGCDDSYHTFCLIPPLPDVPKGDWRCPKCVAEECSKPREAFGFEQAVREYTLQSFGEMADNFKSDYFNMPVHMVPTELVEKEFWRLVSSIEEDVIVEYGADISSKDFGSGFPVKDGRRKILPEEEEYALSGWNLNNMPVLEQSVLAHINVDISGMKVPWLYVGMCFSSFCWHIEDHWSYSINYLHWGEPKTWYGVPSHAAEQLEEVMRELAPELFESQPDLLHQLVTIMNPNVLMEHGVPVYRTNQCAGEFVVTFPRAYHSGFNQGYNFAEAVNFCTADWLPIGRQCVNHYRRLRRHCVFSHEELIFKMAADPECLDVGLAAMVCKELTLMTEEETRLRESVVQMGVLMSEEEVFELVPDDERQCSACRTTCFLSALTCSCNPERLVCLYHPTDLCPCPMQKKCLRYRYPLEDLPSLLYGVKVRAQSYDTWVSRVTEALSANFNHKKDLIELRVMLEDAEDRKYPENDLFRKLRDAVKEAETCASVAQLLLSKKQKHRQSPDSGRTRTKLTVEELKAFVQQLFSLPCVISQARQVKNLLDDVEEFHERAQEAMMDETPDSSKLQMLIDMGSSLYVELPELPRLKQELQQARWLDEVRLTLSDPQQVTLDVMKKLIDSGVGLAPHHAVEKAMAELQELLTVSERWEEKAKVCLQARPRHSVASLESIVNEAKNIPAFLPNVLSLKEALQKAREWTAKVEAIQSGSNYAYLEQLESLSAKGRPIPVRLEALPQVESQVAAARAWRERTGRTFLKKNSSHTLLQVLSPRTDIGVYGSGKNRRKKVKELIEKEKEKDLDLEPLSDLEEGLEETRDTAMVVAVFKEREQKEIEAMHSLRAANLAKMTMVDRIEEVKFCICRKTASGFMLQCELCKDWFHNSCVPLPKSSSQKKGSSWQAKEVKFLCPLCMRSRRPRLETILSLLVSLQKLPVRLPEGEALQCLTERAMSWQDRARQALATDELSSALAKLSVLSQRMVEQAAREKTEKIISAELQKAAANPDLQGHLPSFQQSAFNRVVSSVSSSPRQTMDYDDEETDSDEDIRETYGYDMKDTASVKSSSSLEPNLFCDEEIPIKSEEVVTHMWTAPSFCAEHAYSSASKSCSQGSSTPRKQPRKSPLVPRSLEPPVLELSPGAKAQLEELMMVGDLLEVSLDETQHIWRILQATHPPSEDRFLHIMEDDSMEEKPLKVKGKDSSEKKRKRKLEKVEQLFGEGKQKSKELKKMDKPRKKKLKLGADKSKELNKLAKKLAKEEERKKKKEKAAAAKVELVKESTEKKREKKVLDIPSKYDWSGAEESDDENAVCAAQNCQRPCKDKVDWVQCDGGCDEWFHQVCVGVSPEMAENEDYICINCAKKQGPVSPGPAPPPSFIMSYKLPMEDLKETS", "experiment": "Enzymatic Assay: The enzymatic assay of Jarid1A activity is based upon Time Resolved-Fluorescence Resonance Energy Transfer (TR-FRET) detection. […] The reaction mixture was incubated at room temperature for 30 minutes, and terminated by the addition of 6 μl of 5 mM EDTA in LANCE detection buffer containing 50 nM Phycolink Streptavidin-allophycocyanin and 2 nM Europium-anti-H3K4me1-2 antibody."}, "[2]": {"target": "Lysine-specific demethylase 5B (Homo sapiens, UniProt Q9UGL1)", "sequence (Q9UGL1 whole entry)": "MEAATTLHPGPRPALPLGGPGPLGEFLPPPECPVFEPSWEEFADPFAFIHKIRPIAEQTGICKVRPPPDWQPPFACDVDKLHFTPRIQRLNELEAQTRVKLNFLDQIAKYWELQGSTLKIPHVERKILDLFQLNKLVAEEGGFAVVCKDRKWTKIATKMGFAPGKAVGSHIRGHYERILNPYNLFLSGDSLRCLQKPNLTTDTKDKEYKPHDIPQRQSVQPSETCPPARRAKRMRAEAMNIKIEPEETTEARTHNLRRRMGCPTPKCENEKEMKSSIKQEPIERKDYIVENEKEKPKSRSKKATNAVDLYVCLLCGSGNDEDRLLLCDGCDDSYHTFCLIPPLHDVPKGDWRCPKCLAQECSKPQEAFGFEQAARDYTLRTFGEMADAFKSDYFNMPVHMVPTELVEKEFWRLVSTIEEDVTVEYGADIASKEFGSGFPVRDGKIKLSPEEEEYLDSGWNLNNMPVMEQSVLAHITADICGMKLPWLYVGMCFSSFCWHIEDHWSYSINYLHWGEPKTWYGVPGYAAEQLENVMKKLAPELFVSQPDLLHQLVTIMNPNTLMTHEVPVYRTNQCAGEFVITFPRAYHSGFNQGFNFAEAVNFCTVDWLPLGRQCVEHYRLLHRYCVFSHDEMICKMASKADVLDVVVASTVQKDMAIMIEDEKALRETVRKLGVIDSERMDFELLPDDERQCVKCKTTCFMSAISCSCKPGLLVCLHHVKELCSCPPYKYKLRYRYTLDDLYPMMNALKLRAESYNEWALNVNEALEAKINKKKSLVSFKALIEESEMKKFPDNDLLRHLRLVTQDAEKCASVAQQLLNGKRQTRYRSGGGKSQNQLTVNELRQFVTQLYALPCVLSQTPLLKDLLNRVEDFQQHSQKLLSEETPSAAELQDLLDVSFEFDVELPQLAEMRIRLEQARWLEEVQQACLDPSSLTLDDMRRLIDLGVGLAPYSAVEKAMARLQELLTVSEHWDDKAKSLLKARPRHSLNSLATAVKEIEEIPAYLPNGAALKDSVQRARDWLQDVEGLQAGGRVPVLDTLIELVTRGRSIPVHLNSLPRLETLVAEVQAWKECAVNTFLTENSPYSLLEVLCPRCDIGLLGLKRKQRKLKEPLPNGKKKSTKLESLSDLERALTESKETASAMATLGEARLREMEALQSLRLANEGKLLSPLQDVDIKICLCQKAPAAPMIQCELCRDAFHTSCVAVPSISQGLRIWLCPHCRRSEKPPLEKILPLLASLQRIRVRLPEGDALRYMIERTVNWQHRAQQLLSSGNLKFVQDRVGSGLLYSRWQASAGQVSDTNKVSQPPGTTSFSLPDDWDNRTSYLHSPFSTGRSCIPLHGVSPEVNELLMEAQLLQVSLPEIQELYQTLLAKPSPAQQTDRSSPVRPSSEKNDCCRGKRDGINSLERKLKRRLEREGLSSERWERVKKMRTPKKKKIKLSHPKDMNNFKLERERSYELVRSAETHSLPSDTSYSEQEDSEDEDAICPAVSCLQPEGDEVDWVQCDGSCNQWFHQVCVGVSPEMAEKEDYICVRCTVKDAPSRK", "experiment": "The reaction mixture was incubated at room temperature for 30 minutes, and terminated by the addition of 6 μl of 5 mM EDTA in LANCE detection buffer containing 50 nM Phycolink Streptavidin-allophycocyanin and 2 nM Europium-anti-H3K4me1-2 antibody."}}}
{"compound": "CCCn1nc(Nc2cnccc2C(=O)O)c2cccc(C)c21", "values": [{"measurement": "IC50", "setting": "[1]", "result": "< 100", "unit": "nM"}, {"measurement": "IC50", "setting": "[2]", "result": "< 100", "unit": "nM"}]}
